Data from patent publication US11274097B2, “2-(het)aryl-substituted condensed bicyclic heterocycle derivatives as pest control agents” (BAYER CROPSCIENCE AKTIENGESELLSCHAFT, priority 2014, dated 2022).

What was measured:
[1] = system: Tetranychus urticae; test: Tetranychus urticae spray test, OP-resistant (TETRUR); assay type: in vivo; details: application rate 500 g/ha; bean leaf discs; after 6 days
Method: Tetranychus urticae—Spray Test, OP-Resistant (TETRUR)
(§1) Solvent: 78.0 parts by weight of acetone • • 1.5 parts by weight of dimethylformamide
(§2) Emulsifier: alkylaryl polyglycol ether
(§3) To produce an appropriate active ingredient formulation, 1 part by weight of active ingredient is dissolved using the stated parts by weight of solvent and made up with water containing an emulsifier concentration of 1000 ppm until the desired concentration is attained. To produce further test concentrations, the preparation is diluted with emulsifier-containing water.
Discs of bean leaves (Phaseolus vulgaris) infested by all stages of the greenhouse red spider mite (Tetranychus urticae) are sprayed with an active ingredient formulation of the desired concentration.
After 6 days, the efficacy in % is determined. 100% means that all the spider mites have been killed; 0% means that none of the spider mites have been killed.

[2] = log P by HPLC on a reversed-phase column (C 18), EEC Directive 79/831 Annex V.A8; assay type: physicochemical; details: 55° C.; for LOGP_HCOOH: acidic range, pH 2.7, 0.1% aqueous formic acid/acetonitrile; for LOGP_NEUTRAL: neutral range, pH 7.8, 0.001 molar aqueous ammonium hydrogencarbonate/acetonitrile
Procedure, shortened: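 Reversed-phase C18 HPLC at 55 °C, 10→95% acetonitrile linear gradient. log P (HCOOH) run at pH 2.7 with 0.1% formic acid; log P (neutral) at pH 7.8 with 0.001 M ammonium hydrogencarbonate. Calibrated by retention-time interpolation between unbranched C3–C16 alkan-2-ones of known log P.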

[3] = system: Phaedon cochleariae; test: Phaedon cochleariae spray test (PHAECO); assay type: in vivo; details: larvae, after 7 days
Method: Phaedon cochleariae—Spray Test (PHAECO)
as §1, §2, §3
Discs of Chinese cabbage leaves (Brassica pekinensis) are sprayed with an active ingredient formulation of the desired concentration and, after drying, populated with larvae of the mustard beetle (Phaedon cochleariae).
After 7 days, the efficacy in % is determined. 100% means that all the beetle larvae have been killed; 0% means that no beetle larvae have been killed.

[4] = system: Spodoptera frugiperda; test: Spodoptera frugiperda spray test (SPODFR); assay type: in vivo; details: application rate 500 g/ha; maize leaf discs; after 7 days
Method: Spodoptera frugiperda—Spray Test (SPODFR)
as §1, §2, §3
Leaf discs of maize (Zea mays) are sprayed with an active ingredient formulation of the desired concentration and, after drying, populated with caterpillars of the armyworm (Spodoptera frugiperda).
After 7 days, the efficacy in % is determined. 100% means that all the caterpillars have been killed; 0% means that no caterpillars have been killed.

[5] = system: Meloidogyne incognita; test: Meloidogyne incognita test; assay type: in vivo; details: application rate 20 ppm; lettuce; after 14 days
Method: Meloidogyne incognita Test Solvent: 125.0 parts by weight of acetone To produce a suitable active ingredient formulation, 1 part by weight of active ingredient is mixed with the stated amount of solvent and the concentrate is diluted with water to the desired concentration. Vessels are filled with sand, active ingredient solution, an egg/larvae suspension of the southern root-knot nematode (Meloidogyne incognita) and lettuce seeds. The lettuce seeds germinate and the plants develop. The galls develop on the roots. After 14 days, the nematicidal efficacy in % is determined by the formation of galls. 100% means that no galls were found; 0% means that the number of galls on the treated plants corresponds to the untreated control.

[6] = system: Myzus persicae; test: Myzus persicae spray test (MYZUPE), Chinese cabbage leaf discs; assay type: in vivo; details: application rate 500 g/ha, after 6 days
Method: (§4) Myzus persicae—Spray Test (MYZUPE)
Solvent: 78 parts by weight of acetone • • 1.5 parts by weight of dimethylformamide
(§5) Emulsifier: alkylaryl poly glycol ether
as §3
Discs of Chinese cabbage leaves (Brassica pekinensis) infested by all stages of the green peach aphid (Myzus persicae) are sprayed with an active ingredient formulation of the desired concentration.
After 6 days, the efficacy in % is determined. 100% means that all the aphids have been killed; 0% means that none of the aphids have been killed.

[7] = system: Myzus persicae; test: Myzus persicae spray test (MYZUPE), bell pepper plants; assay type: in vivo; details: application rate 100 ppm, after 6 days
Method: as §4
(§6) Solvent: 7 parts by weight of dimethylformamide
as §5
as §3, with “water. If the addition of ammonium salts or/and penetrants is required, these are each added in a concentration of 1000 ppm to the formulation solution.” for “water.”
Bell pepper plants (Capsicum annuum) heavily infested by the green peach aphid (Myzus persicae) are treated by spraying with the active ingredient formulation in the desired concentration.
After 6 days, the kill in % is determined. 100% means that all the aphids have been killed; 0% means that no aphids have been killed.

[8] = system: Myzus persicae; test: Myzus persicae translaminar test (MYZUPE t); assay type: in vivo; details: 14 dat
Method: Myzus persicae—Translaminar Test (MYZUPE t)
as §6, §5
(§7) To produce an appropriate active ingredient formulation, 1 part by weight of active ingredient is dissolved using the stated parts by weight of solvent and made up with water containing an emulsifier concentration of 1000 ppm until the desired concentration is attained. To produce further test concentrations, the preparation is diluted with emulsifier-containing water. In the event that addition of ammonium salts or/and penetrants (rapeseed oil methyl ester) is required, these are each pipetted in a concentration of 1000 ppm after the finished formulation solution has been diluted.
One-leaved bell pepper plants (Capsicum annuum) heavily infested by the green peach aphid (Myzus persicae) are treated by spraying the top side of the leaf with the active ingredient formulation in the desired concentration.
(§8) After the desired time, the kill in % is determined. 100% means that all the aphids have been killed and 0% means that none of the aphids have been killed.

[9] = system: Nilaparvata lugens; test: Nilaparvata lugens test (NILALU); assay type: in vivo; details: 4 ppm
Method: Nilaparvata lugens Test (NILALU)
as §6, §2, §7
Rice plants (Oryza sativa, var. Balilla) are treated by spraying with the active ingredient formulation in the desired concentration and then populated with L3 larvae of the brown planthopper (Nilaparvata lugens).
After the desired time, the feeding damage in % is determined. 100% means that no feeding damage is found; 0% means that the feeding damage to the treated plant corresponds to that of the untreated control.

[10] = system: Myzus persicae; test: Myzus persicae contact test (MYZUPE c); assay type: in vivo; details: 2.4 g/ha, 14 dat
Method: Myzus persicae—Contact Test (MYZUPE c)
as §6, §5, §7
One-leaved bell pepper plants (Capsicum annuum) heavily infested by the green peach aphid (Myzus persicae) are treated by spraying the underside of the leaf with the active ingredient formulation in the desired concentration.
as §8

[11] = system: Aphis gossypii; test: Aphis gossypii translaminar test (APHIGO t); assay type: in vivo; details: 2.4 g/ha, 7 dat
Method: Aphis gossypii—Translaminar Test (APHIGO t)
as §6, §2, §7
One-leaved cotton plants (Gossypium hirsutum) heavily infested by the cotton aphid (Aphis gossypii) are treated by spraying the top side of the leaf with the active ingredient formulation in the desired concentration.
as §8

[12] = system: Nephotettix cincticeps; test: Nephotettix cincticeps test (NEPHCI); assay type: in vivo; details: 0.16 ppm
Method: Nephotettix cincticeps Test (NEPHCI)
as §6, §2, §7
Rice plants (Oryza sativa, var. Balilla) are treated by spraying with the active ingredient formulation in the desired concentration and then populated with larvae of the green rice leafhopper (Nephotettix cincticeps).
After the desired time, the kill in % is determined. 100% means that all leafhoppers have been killed; 0% means that none of the leafhoppers have been killed.

[13] = system: Aphis gossypii; test: Aphis gossypii contact test (APHIGO c); assay type: in vivo; details: 2.4 g/ha, 7 dat
Method: Aphis gossypii—Contact Test (APHIGO c)
as §6, §2, §7
One-leaved cotton plants (Gossypium hirsutum) heavily infested by the cotton aphid (Aphis gossypii) are treated by spraying the underside of the leaf with the active ingredient formulation in the desired concentration.
as §8

| LOGP_HCOOH [2] | LOGP_NEUTRAL [2] | SMILES | efficacy [1] [%] | efficacy ([3]; application rate 500 g/ha) [%] | efficacy [4] [%] | nematicidal efficacy (formation of galls) [5] [%] | efficacy [6] [%] | efficacy (kill) [7] [%] | efficacy ([3]; application rate 100 g/ha) [%] | % efficacy ([8]; 2.4 g/ha) [%] | % efficacy ([8]; 12 g/ha) [%] | % efficacy ([9]; 21 dat) [%] | % efficacy ([9]; 28 dat) [%] | % efficacy [10] [%] | % efficacy [11] [%] | % efficacy ([12]; 14 dat) [%] | % efficacy ([12]; 21 dat) [%] | % efficacy ([12]; 34 dat) [%] | % efficacy [13] [%] |
| --- | --- | --- | --- | --- | --- | --- | --- | --- | --- | --- | --- | --- | --- | --- | --- | --- | --- | --- | --- |
| 2.50 | 2.46 | CCS(=O)(=O)c1cccnc1-c1nc2cc(C(F)(F)C(F)(F)F)ncc2n1C [Example I-68] | 100 | 100 | 100 | 100 | 90 |  |  |  |  |  |  |  |  |  |  |  |  |
| 2.39 | 2.34 | Cn1c(-c2ccc(Cl)cc2S(C)(=O)=O)nc2cc(C(F)(F)F)ncc21 [Example I-11] |  |  |  |  |  | 97 | 100 |  |  |  |  |  |  |  |  |  |  |
|  |  | CCS(=O)(=O)c1cc(C(F)(F)F)cnc1-c1nc2cc(C(F)(F)F)cnc2n1C [Ex. 5 known from WO2013018928] |  |  |  |  |  |  |  | 0 | 0 | 35 | 20 | 50 | 0 | 0 | 0 | 0 | 15 |
